Test results taken from patent publication US20100168054A1, “Functionalized Beta 1,6 Glucosamine Disaccharides and Process for Their Preparation” (OM PHARMA, priority 2006, published 2010).

Key:
[1] = biological target: T1, TLR2 (Homo sapiens, UniProt O60603); assay: HEK-TLR2 IL-8 secretion; assay type: cell-based; conditions: for IL-8 secretion, mean: 24 h
T1 construct: host or cells: HEK293
Description: The HEK293 cell line was chosen for its null or low basal expression of the TLR genes. These cells enable efficient monitoring of TLR activity using ELISA analysis such as IL-8 titration or reporter-based systems that monitor TLR-induced NF-κB activation. HEK-TLR2 cells (Invivogen, Toulouse, France) are engineered HEK293 cells stably transfected with multiple genes from the TLR2 pathway that include TLR2 and genes participating in the recognition or involved in the signaling cascade. These cells secrete IL-8 after TLR2 stimulation. The experiments were performed according to manufacturers' instructions. Briefly, 2×10^4 cells/well (200 ul RPMI) are incubated at 37° C. during 3 days (5% CO2). The medium is removed, and 90 ul RPMi+5% FCS is added to the wells Then the agonists and controls are added (10 ul/well). The cells return to the incubator for 24 hours. The supernatants are collected and the IL-8 ELISA is performed according to manufacturer's instructions

[2] = test system: murine macrophages; assay: Nitric oxide production by murine macrophages (Griess reaction); assay type: cell-based, C57/BL6 mice; conditions: 22 h
Description: Experimental assay of nitric oxide production by murine macrophages: Six-week old male C57/BL6 mice (six weeks old male, SPF quality, Charles Rivier, FR) were killed by CO2 inhalation. The hip, femur, and tibia from the posterior appendage were removed. The bone marrow was extracted from the lumen by injecting Dulbecco's Modified Eagle Medium (DH) through the bone after cutting both end portions. After washing, the stem cells were resuspended (40'000 cells/mL) in DH medium supplemented with 20% horse serum and 30% L929 cell supernatant. The cell suspension is incubated for 8 days in an incubator at 37° C. under 8% CO2 and moisture-saturated atmosphere. Macrophages are then detached with ice-cold PBS, washed and resuspended in DH medium supplemented with 5% fetal calf serum (FCS), amino acids and antibiotics (DHE medium). The cell density is adjusted to 700′000 cells/mL. Aqueous solutions of the products are serially diluted in DHE medium directly in microtiter plates. The products are tested in triplicates and each microtiter plate comprises a negative control composed of medium. The final volume in each well is […]. 100 μL of the cell suspension are added to the diluted products and the cells are incubated for 22 h in an incubator at 37° C., under 8% CO2 and a moisture-saturated atmosphere. At the end of the incubation period, 100 μL of supernatant are transferred to another microtiter plate and the nitrite concentration produced in each supernatant is determined by running a Griess reaction. 100 μL of Griess reagent (5 mg/mL of sulfanilamide+0.5 mg/mL of N-(1-naphtyl)ethylene-diamine hydrochloride) in 2.5% aqueous phosphoric acid, are added to each well. The microtiter plates are read with a spectrophotometer (SpectraMax Plus, Molecular Devices) at 562 nm against a reference at 690 nm. The nitrite concentration is proportional to nitric oxide content being formed. The nitrite content is determined based on a standard curve. The results are given as mean value±standard deviation and plotted as a dose response curve.

[3] = test system: THP1-Blue cells (express naturally both TLR2 and TLR4); assay: THP1-Blue NF-κB/AP-1-inducible SEAP reporter; assay type: cell-based, human; conditions: for Optical density read at 625 nm, mean of duplicates: 48 h
Experimental: A first series of experiment was performed on THP-1 cells, which express naturally both TLR2 and TLR4. THP-1 cells are human peripheral blood monocytic cells. Monocytes play a key role in innate immunity and express most TLRs at various levels. As for the primary cells, THP-1 cells activate NF-κB and other transcription factors in response to TLR ligands
To facilitate analysis of TLR response in monocytes, InvivoGen (Toulouse, France) provides THP-1 clones stably transfected with an NF-κB-inducible reporter system, called THP1-Blue™. THP-1 Blue cells were stably transfected with a reporter plasmid expressing a secreted embryonic alkaline phosphatase (SEAP) gene under the control of a promoter inducible by several transcription factors such as NF-κB and AP-1. Upon TLR stimulation, THP1-Blue™ cells activate transcription factors and subsequently the secretion of SEAP which is easily detectable when using QUANTI-Blue\u2122a medium that turns purple/blue in the presence of SEAP.
The cells were stimulated with the controls and compounds of the invention according to manufacturer's instructions. Results: Increased OD at 625 Nm after 48 Hours: The results for the controls (negative=LPS K12CD25 ultrapure, a TLR4 agonist; and PAM3CSK4=positive, a TLR2 agonist) are provided in the table below. The results (expressed as OD of arbitrary units) show the mean values (from duplicate measures) of Optical density read at 625 nm, 48 h after stimulation at 37° C. with the controls (up to 1000 ng/ml): […]

[4] = test system: rat mast cells; assay: Histamine secretion (compound 48/80-stimulated); assay type: cell-based; conditions: Rattus norvegicus, Mast cell, 2 min, compound 48/80 0.1 μg/ml, 37° C., read-out: IC50
Description: Using an in vitro rat model of mast cell degranulation (proposed by the CRO CEREP, catalog number 2006: 771-c), we aimed to investigate whether the synthetic molecules OM-174-DP (compound 1b) OM-174-MP-PD (19), OM-174-MP-EP (33), OM-174-MP-CM (35c) and OM-174-MP-PR (17) would inhibit histamine secretion by compound 48/80-stimulated mastocytes. The protocol used is briefly summarized below:
The results are expressed as a percent of control specific activity ((measured specific activity/control specific activity)×100) obtained in the presence of the test compounds. The IC50 values (concentration causing a half-maximal inhibition of control specific activity) were determined by non-linear regression analysis of the inhibition curves generated with mean replicate values using Hill equation curve fitting (Y=D+[(A−D)/(1+(C/C50)nH)], where Y=specific activity, D=minimum specific activity, A=maximum specific activity, C=compound concentration, C50=IC50, and nH=slope factor). This analysis was performed using a software developed at Cerep (Hill software) and validated by comparison with data generated by the commercial software SigmaPlot® 4.0 for Windows® (© 1997 by SPSS Inc.).
In each experiment, the reference compound was tested concurrently with the test compounds in order to assess the assay suitability. It was tested at several concentrations (for IC50 value determination), and the data were compared with historical values determined at CEREP. The assay was rendered valid if the suitability criteria were met, in accordance with the corresponding Standard Operating Procedure.

T1 sequence (O60603 21-784): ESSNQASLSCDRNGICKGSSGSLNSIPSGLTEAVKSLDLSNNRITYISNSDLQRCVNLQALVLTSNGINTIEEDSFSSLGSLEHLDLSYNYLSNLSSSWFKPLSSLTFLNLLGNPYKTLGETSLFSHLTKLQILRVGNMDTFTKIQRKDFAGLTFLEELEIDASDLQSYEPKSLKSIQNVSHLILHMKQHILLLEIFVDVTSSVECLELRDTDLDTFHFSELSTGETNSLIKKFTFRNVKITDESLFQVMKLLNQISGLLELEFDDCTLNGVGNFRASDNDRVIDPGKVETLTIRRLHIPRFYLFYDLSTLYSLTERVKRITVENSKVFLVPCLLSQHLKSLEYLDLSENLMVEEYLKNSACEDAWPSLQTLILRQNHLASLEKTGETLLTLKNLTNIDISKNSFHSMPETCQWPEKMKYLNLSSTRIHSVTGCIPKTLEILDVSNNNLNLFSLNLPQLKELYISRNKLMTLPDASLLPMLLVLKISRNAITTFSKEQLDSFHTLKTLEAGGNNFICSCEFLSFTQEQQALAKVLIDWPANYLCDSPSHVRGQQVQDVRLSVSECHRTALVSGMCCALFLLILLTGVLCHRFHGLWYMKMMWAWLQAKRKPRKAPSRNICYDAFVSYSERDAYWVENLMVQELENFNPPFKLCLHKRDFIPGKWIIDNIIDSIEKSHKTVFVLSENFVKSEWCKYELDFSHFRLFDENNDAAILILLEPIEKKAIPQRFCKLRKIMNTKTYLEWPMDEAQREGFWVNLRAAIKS

CCCCCCCCCCCC(=O)O[C@H](CCCCCCCCCCC)CC(=O)N[C@H]1[C@H](OC[C@H]2O[C@H](O)[C@H](NC(=O)C[C@H](O)CCCCCCCCCCC)[C@@H](O)[C@@H]2O)O[C@H](CO)[C@@H](OP(=O)(O)O)[C@@H]1O [compound 16, 2-Deoxy-6-O-[2-deoxy-4-O-(dihydroxyphosphoryl)-2-[(R)-3-dodecanoyloxytetradecanoylamino]-β-D-glucopyranosy]-2-[(R)-3-hydroxytetradecanoylamino]-α-D-glucopyranose]
IL-8 secretion, mean ([1]; 14 ng/ml): 0.07 pg/mL | IL-8 secretion, mean ([1]; 41 ng/ml): 0.09 pg/mL | IL-8 secretion, mean ([1]; 124 ng/ml): 0.15 pg/mL | IL-8 secretion, mean ([1]; 370 ng/ml): 0.12 pg/mL | IL-8 secretion, mean ([1]; 1111 ng/ml): 0.15 pg/mL | IL-8 secretion, mean ([1]; 3333 ng/ml): 0.19 pg/mL | IL-8 secretion, mean ([1]; 10000 ng/ml): 0.27 pg/mL | nitric oxide production (in words), FIG. 25 [2]: able to induce high levels of nitric oxide | activation of THP-1 cells (in words) [3]: weaker | Optical density read at 625 nm, mean of duplicates ([3]; 14 ng/ml): 0.15 OD | Optical density read at 625 nm, mean of duplicates ([3]; 41 ng/ml): 0.13 OD | Optical density read at 625 nm, mean of duplicates ([3]; 124 ng/ml): 0.15 OD | Optical density read at 625 nm, mean of duplicates ([3]; 370 ng/ml): 0.16 OD | Optical density read at 625 nm, mean of duplicates ([3]; 1111 ng/ml): 0.17 OD | Optical density read at 625 nm, mean of duplicates ([3]; 3333 ng/ml): 0.18 OD | Optical density read at 625 nm, mean of duplicates ([3]; 10000 ng/ml): 0.22 OD

CCCCCCCCCCCC(=O)O[C@H](CCCCCCCCCCC)CC(=O)N[C@H]1[C@H](OC[C@H]2O[C@H](OCC(O)CO)[C@H](NC(=O)C[C@H](O)CCCCCCCCCCC)[C@@H](O)[C@@H]2O)O[C@H](CO)[C@@H](OP(=O)(O)O)[C@@H]1O (stereo partly drawn) [compound 19, 2,3-Dihydroxypropyl-2-Deoxy-6-O-[2-deoxy-4-O-(dihydroxyphosphoryl)-2-[(R)-3-dodecanoyloxytetradecanoylamino]-β-D-glucopyranosyl]-2-[(R)-3-hydroxytetradecanoylamino]-α-D-glucopyranoside]
IC50 [4]: 0.16 µM | IL-8 secretion, mean ([1]; 14 ng/ml): 0.06 pg/mL | IL-8 secretion, mean ([1]; 41 ng/ml): 0.15 pg/mL | IL-8 secretion, mean ([1]; 124 ng/ml): 0.16 pg/mL | IL-8 secretion, mean ([1]; 370 ng/ml): 0.20 pg/mL | IL-8 secretion, mean ([1]; 1111 ng/ml): 0.27 pg/mL | IL-8 secretion, mean ([1]; 3333 ng/ml): 0.37 pg/mL | IL-8 secretion, mean ([1]; 10000 ng/ml): 0.62 pg/mL | dose from which active (nitric oxide production) [2]: ≥ 0.01 µg/mL | nitric oxide production (in words), FIG. 25 [2]: able to induce high levels of nitric oxide | activation of THP-1 cells (in words) [3]: good activators of THP-1 cells | Optical density read at 625 nm, mean of duplicates ([3]; 14 ng/ml): 0.15 OD | Optical density read at 625 nm, mean of duplicates ([3]; 41 ng/ml): 0.13 OD | Optical density read at 625 nm, mean of duplicates ([3]; 124 ng/ml): 0.17 OD | Optical density read at 625 nm, mean of duplicates ([3]; 370 ng/ml): 0.24 OD | Optical density read at 625 nm, mean of duplicates ([3]; 1111 ng/ml): 0.37 OD | Optical density read at 625 nm, mean of duplicates ([3]; 3333 ng/ml): 0.58 OD | Optical density read at 625 nm, mean of duplicates ([3]; 10000 ng/ml): 0.77 OD

CCCCCCCCCCCC(=O)O[C@H](CCCCCCCCCCC)CC(=O)N[C@H]1[C@H](OC[C@H]2O[C@H](OCCC)[C@H](NC(=O)C[C@H](O)CCCCCCCCCCC)[C@@H](O)[C@@H]2O)O[C@H](CO)[C@@H](OP(=O)(O)O)[C@@H]1O [compound 17, Propyl-2-Deoxy-6-O-[2-deoxy-4-O-(dihydroxyphosphoryl)-2-[(R)-3-dodecanoyloxytetradecanoylamino]-β-D-glucopyranosyl]-2-[(R)-3-hydroxytetradecanoylamino]-α-D-glucopyranoside]
IC50 [4]: 1.6 µM | IL-8 secretion, mean ([1]; 14 ng/ml): 0.19 pg/mL | IL-8 secretion, mean ([1]; 41 ng/ml): 0.20 pg/mL | IL-8 secretion, mean ([1]; 124 ng/ml): 0.24 pg/mL | IL-8 secretion, mean ([1]; 370 ng/ml): 0.25 pg/mL | IL-8 secretion, mean ([1]; 1111 ng/ml): 0.39 pg/mL | IL-8 secretion, mean ([1]; 3333 ng/ml): 0.88 pg/mL | IL-8 secretion, mean ([1]; 10000 ng/ml): 2.02 pg/mL | activation of IL-8 secretion via TLR2 (in words) ([1]; HEK-TLR2): able to activate IL-8 secretion via TLR2 | nitric oxide production (in words), FIG. 25 [2]: able to induce high levels of nitric oxide | activation of THP-1 cells (in words) [3]: good activators of THP-1 cells | Optical density read at 625 nm, mean of duplicates ([3]; 14 ng/ml): 0.13 OD | Optical density read at 625 nm, mean of duplicates ([3]; 41 ng/ml): 0.15 OD | Optical density read at 625 nm, mean of duplicates ([3]; 124 ng/ml): 0.19 OD | Optical density read at 625 nm, mean of duplicates ([3]; 370 ng/ml): 0.36 OD | Optical density read at 625 nm, mean of duplicates ([3]; 1111 ng/ml): 0.74 OD | Optical density read at 625 nm, mean of duplicates ([3]; 3333 ng/ml): 1.02 OD | Optical density read at 625 nm, mean of duplicates ([3]; 10000 ng/ml): 1.15 OD
